Experimental findings from patent publication US20070155882A1, “Curable liquid composition, cured film, and antistatic laminate” (priority 2003, published 2007) are described below.

This data set is described as follows: Solubility of compound (B) in solvent (solid content of saturated solution). It is filed as physicochemical. The method, then: Specifically, whether a specific solvent is the component (C) or the component (D) is determined depending on the type of the component (B). […] In more detail, the solubility is determined by measuring the solid content of the component (B) in a solution consisting of the component (B) and the solvent.
The supernatant liquid of the resulting mixture was dried on a hot plate at 120° C. for one hour and weighed to calculate the solid content.

The mark [1] stands for this setting: solvent: IPA (isopropyl alcohol).

With `C=CC(=O)OCC(COCC(COC(=O)C=C)(COC(=O)C=C)COC(=O)C=C)(COC(=O)C=C)COC(=O)C=C` [Example B-1, Dipentaerythritol hexaacrylate], the solubility in solvent entry reads like this: under setting [1], “≧50 wt %”; (solvent: MeOH (methanol)) “≧50 wt %”.
`C=CC(=O)OCCn1c(=O)n(CCOC(=O)C=C)c(=O)n(CCOC(=O)C=C)c1=O` [Example B-3, Tris(2-hydroxyethyl)isocyanurate triacrylate] gave a solubility in solvent (solvent: EtOH (ethanol)) of 1.8 wt %, a solubility in solvent under setting [1] of 7.1 wt %, a solubility in solvent (solvent: MeOH (methanol)) of 49 wt % and a solubility in solvent (solvent: water) of 1.2 wt %.
Turning to “Tricyclodecanediyldimethanol diacrylate [Example B-2]”, the solubility in solvent entry is, setting by setting: (solvent: EtOH (ethanol)) “≧50 wt %”; under setting [1], “≧50 wt %”; (solvent: MeOH (methanol)) “≧50 wt %”; (solvent: water) less than 0.1 wt %.
